This note sets out measurements from patent US20050267030A1, “Use of deltaPKC peptides for modulation of reactive oxygen species” (priority 2004, published 2005).

Ends that are not written are not given here.

The test system of assay [1] is rat vascular smooth muscle cells. The experiment in a line: Production of reactive oxygen species (superoxide) in vitro, loss of tempoamine signal by electron spin resonance. Format: cell-based. To be noted: FIG. 2. As for the experimental part:
Example 1 details a study where inhibitors and activators of δPKC were administered to rat vascular smooth muscle cells in vitro. Cells were incubated in presence of (1) the agonist Tat-conjugated peptide ψδRACK (SEQ ID NO:5); (2) phorbol 12-myristate 13-acetate (PMA); or (3) the antagonist Tat-conjugated peptide δV1-1 (SEQ ID NO:3) plus PMA. A control cell sample was left untreated. Tempoamine ((2,2,6,6-tetramethyl-1-piperidi-nyloxy-4-amine)) was added to each culture and the loss of tempoamine signal was measured by electron spin resonance to measure superoxide production.
PMA, a non-isozyme specific activator of PKC, stimulated a 3-4 fold increase in ROS in the cells. […] Inhibition of this PKC isoform caused a decrease in PMA-stimulated ROS production.
Rat vascular smooth muscle cells were harvested from Zucker lean aortas by enzymatic digestion and cultured in Dulbecco's modified eagle's medium with 10% fetal bovine serum and penicillin/streptomycin under standard tissue culture conditions. The cells were incubated in the presence tempoamine ((2,2,6,6-tetramethyl-1-piperidi-nyloxy4-amine)) (100 μM) and in the presence of (1) the agonist Tat-conjugated peptide ψδRACK (10 μM); (2) phorbol 12-myristate 13-acetate (PMA, 500 ng/mL); or (3) the antagonist Tat-conjugated peptide δV1-1 (10 μM) plus PMA (500 ng/mL). A control cell sample was left untreated. The loss of tempoamine signal was measured by electron spin resonance to measure superoxide production.

Assay [2] deals with Zucker obese rats (fa/fa). The experiment in a line: ROS (superoxide) production in aorta tissue homogenates of Zucker rats, electron spin resonance. The assay is classed as in vivo, rat. To be noted: Zucker obese rats treated, versus Zucker lean control, FIG. 3A. As for the experimental part:
Tissue homogenates from the aortas of Zucker obese rats and of Zucker lean (Fa/fa) rats were prepared and analyzed for superoxide production using electron spin resonance with a tempomaine probe.

A further assay relates to Cbfa-1. The experiment in a line: Cbfa-1 gene expression in rat vascular smooth muscle cells, TaqMan real time PCR. Format: cell-based. To be noted: cells incubated with Tat-conjugated peptide versus untreated control, FIG. 5C. The protocol:
(§1) In another study, described in Example 4, the gene transcriptional effects of insulin and the selective inhibition of PKC isoforms was examined using real-time polymerase chain reaction (TaqMan® PCR). In vitro cells were incubated with insulin and in the presence or absence of a δPKC inhibitor, δV1-1 peptide. The expression of TGF-β and core binding factor α-1 (Cbf α-1) were monitored using TaqMan® real time PCR. Rat vascular smooth muscle cells passages three through seven were prepared as describe in Example 1B. The cells were incubated with insulin (100 nm, SourceLife Technologies) or with the δPKC inhibitor peptide δV1-1, prepared as described in Example 1A. RNA isolation and purification were performed as described in Example 2 and TaqMan® real time PCR was used to analyze the relative quantity TGF-β1 and core binding factor α-1 (Cbf α-1). PCR primers and probes were obtained commercially from Applied Biosystems, Inc. and the PCR was performed on an Applied Biosystems ABI Prism 7700.
A general note: Quantitative PCR measures a nucleic acid by following its amplification.

For a further assay, the system named is TGF-β1. The experiment in a line: TGF-β1 gene expression in rat vascular smooth muscle cells, TaqMan real time PCR. Format: cell-based. The protocol:
as §1

The subject of a further assay is δPKC. The experiment in a line: Translocation of δPKC in cells incubated with insulin, Western blot of cytosol and membrane fractions. The assay is classed as cell-based, rat. To be noted: bovine insulin 100 nM, up to 24 hours, semi-quantitative from Western blot, FIG. 4B. As for the experimental part:
Example 3 describes a study conducted to examine to role of PKC isozymes, and in particular δPKC, in vascular fibrosis, which is accelerated during the insulin-resistant, pre-diabetic state in animals. In this study, rat vascular smooth muscle cells were incubated with bovine insulin. Translocation of PKC isozymes was assessed by Western blot analysis of the cystosolic and membrane (particulate) fractions of the cells. The subcellular localization of various PKC isozymes was assessed by […] by probing the blot with isozyme specific antibodies, such as anti-δPKC, anti-αPKC, and anti-ε PKC, etc. […]
Rat vascular smooth muscle cells passages three through seven were prepared as described in Example 1 B. The cells were incubated with bovine insulin (100 nM) for time periods of up to 24 hours. Activation of various PKC isozymes was analyzed by harvesting the cells and separating the protein into cytosolic and membrane (particulate) fractions and examining both fractions by Western blot using anti-δPKC, anti-αPKC, and anti-ε PKC for the presence of different PKC isoforms. The activity of the isoform was assessed as amount of PKC in the membrane fraction divided by the total amount of protein in both fractions (cytosol and membrane), normalized to control.
(A western blot detects proteins with antibodies after separation by electrophoresis.)

Consider `CCCCCCCCCCCCCC(=O)O[C@@H]1[C@@H](C)[C@@]2(O)[C@@H](C=C(CO)C[C@]3(O)C(=O)C(C)=C[C@@H]23)[C@@H]2C(C)(C)[C@]12OC(C)=O` [PMA, phorbol 12-myristate 13-acetate, reference compound], for which the “increase in ROS in the cells” value in assay [1] (PMA 500 ng/mL, tempoamine 100 μM) is on record as 3-4 fold.
As for `O=C1CSC(=O)N1` [TZD1], the “ROS production in aorta homogenates” value in assay [2] was “brought the ROS production down to control levels”.
In the case of “MRAAEDPM (not fully specified; also: Tat conjugated; listed as Rattus norvegicus) [ψδRACK, δPKC agonist peptide, amino acids 74-81 of δPKC]”, the “production of ROS” value in assay [1] (Tat-conjugated peptide 10 μM, tempoamine 100 μM, versus untreated control) is recorded as “increased production of ROS”.
Take “SFNSYELGSL (not fully specified; also: Tat conjugated; listed as Rattus norvegicus) [δV1-1, δPKC antagonist peptide, amino acids 8-17 of δPKC]”: the “ROS production stimulated by PMA” value in assay [1] (Tat-conjugated peptide 10 μM co-incubated with PMA 500 ng/mL) is listed as “effective to reverse or inhibit a significant part of the ROS production stimulated by PMA”. Also, the Cbfa-1 gene expression result in the assay with Cbfa-1 is recorded as “inhibited”. Moreover, the TGF-β1 expression entry with TGF-β1 (cells incubated with Tat-conjugated peptide versus untreated control, FIG. 5B) is “inhibited”.
Take “insulin: bovine insulin incubated with rat vascular smooth muscle cells”: the “relative δPKC activity (membrane fraction / total, normalized to control)” value in the assay on δPKC is reported as “about 1.7”. For the same compound, the “normalized TGF-β expression” value in the assay on TGF-β1 (cells incubated with insulin (100 nm) versus untreated control, FIG. 5A) was “did not appear to stimulate”.
